Results on 5 compounds are retold here after US20020045191A1, “Inhibition of the SRC kinase family pathway as a method of treating HBV infection and hepatocellular carcinoma” (priority 2000, published 2002).

For assay [1], the system named is HBV. Description: HBV mRNA levels, Northern blot, HepG2 cells. The following applies: for cytoplasmic levels of HBV pgRNA and HBsAg mRNAs: HepG2 cells, 4 d, valinomycin 1 nM, thapsigargin 20 nM. It counts as cell-based, hepatitis B virus. How it is done: (§1) TPA treatment was for […] using 20 ng/ml. […] (C) Chang cells transfected with vector or pAdCMVX were treated 2h with 0.5 mM or 3 mM EGTA, and Pyk2 examined by immunoblot. (D) HepG2 cells were transfected with HBV, HBx(−) HBV genomic DNA or vector, complemented by 2 μg plasmid pAdCMVX. Cytoplasmic HBV core particles were isolated from equal numbers of cells (Klein, et al. 1997, EMBOJ 18: 5019-5027) and viral DNA replication intermediates detected by Southern blot as described (Klein, et al. 1997, EMBOJ 18: 5019-5027). The smear represents 4 kb (mature double-stranded DNA) to 2 kb (first-strand single-stranded DNA). Northern blot analysis was carried out using poly(A+) RNA extracted from equal numbers of cells. (E) Southern and Northern blot analyses were performed on HepG2 cells transfected as above with or without pPKM or PPRKS. Typical experiments are shown.
FIG. 10. […] Products were resolved by electrophoresis and detected by autoradiography. Typical results are shown.
(§2) FIG. 11. (A) HepG2 cells were with HBV or HBx(−) HBV genomic DNA. At 24 h post-transfection cells were treated with 1 nM valinomycin (val.) or 20 nM thapsigargin (thap.) for 4 d, cytoplasmic core particles were isolated from equal numbers of cells and viral replication examined by Southern blot hybridization. HBV transcription was analyzed by Northern blot hybridization. (B) Nontransfected HepG2 cells 5were treated with valinomycin or thapsigargin as above, and the abundance of Pyk2 or activated Pyk2 Y-402 phosphorylation determined by immunoblot
The requirement for cytosolic calcium and HBx activation of Pyk2 in HBV replication was examined. […]
Studies next determined whether HBx activity can be replaced by ionophoric agents that increase cytosolic calcium. […]

For assay [2], the system named is Pyk2. Nature of the assay: Pyk2 activity (Y-402 phosphorylation immunoblot) in nontransfected HepG2 cells. Format: cell-based, human. The following applies: valinomycin 1 nM, thapsigargin 20 nM. How it is done:
as §2
Studies next determined whether HBx activity can be replaced by ionophoric agents that increase cytosolic calcium. Cells were transfected with plasmids expressing wild type HBV or HBx(−) genomes and treated for 4 d with low, nontoxic levels of calcium mobilizing agents valinomycin (1 nM) or thapsigargin (20 nM). Reverse transcription and DNA replication of (HBx−)HBV were increased 20 fold by valinomycin to wild type (HBx+) levels, and 10 fold by thapsigargin (FIG. 11A).
(In general: A western blot detects proteins with antibodies after separation by electrophoresis.)

For assay [3], the system named is HBV. Description: HBV DNA replication in cytoplasmic core particles, Southern blot, HepG2 cells. Format: cell-based, hepatitis B virus. The following applies: for increase of reverse transcription and DNA replication of (HBx−)HBV: HepG2 cells, 4 d, valinomycin 1 nM, thapsigargin 20 nM.
Text: Cytoplasmic viral core particles were isolated and HBV DNA replication and mRNA levels detected by Southern and Northern blot hybridization.
The requirement for cytosolic calcium and HBx activation of Pyk2 in HBV replication was examined. […] HepG2 cells were transfected with vector alone, wild type HBV genomic DNA, or HBx(−) genomic DNA, cytoplasmic viral core particles, the structures in which viral DNA replication takes place, were isolated and the level of viral DNA replication was examined (FIG. 9D).
The requirement for cytosolic calcium in HBx-dependent viral replication was investigated.
The test system of assay [4] is Pyk2. Nature of the assay: Pyk2 Y-402 phosphorylation immunoblot, Chang cells. It counts as cell-based, human. The settings on record: for HBx activation of Pyk2: 0.5 mM EGTA 2 h, 50 μM BAPTA-AM 2 h, 3 μM CsA 4 h. The protocol:
FIG. 9. Chang cells or HepG2 cells were transfected with expression vectors pAdCMVX (HBx), pAdCMVXo (HBx−), pPKM, or empty vectors pAdCMV or pPRK5. (A) Chang cells were treated with 50 μM BAPTA-AM for 2 h, equal protein amounts resolved by gel-electrophoresis and immunoblotted with antibodies to Pyk2 or activated Y-402 phosphorylated Pyk2.
as §1
Studies determined whether HBx acts on intracellular calcium to activate Pyk2. […] HBx activation of Pyk2 therefore involves cytosolic calcium action. Studies next determined whether HBx acts on calcium channels in the endoplasmic reticulum (ER), mitochondria or plasma membrane (PM) for its activity.

A further assay deals with c-Src. Description: c-Src immunoprecipitation and in vitro kinase assay (auto-phosphorylation, enolase trans-phosphorylation), NIH 3T3 cells. It counts as cell-based. The following applies: serum-starved NIH 3T3 cells, PDGF (100 ng/ml) for 5 minutes. The protocol: FIG. 1. Serum-starved NIH 3T3 cells were infected with AdCMV-X or -Xo viruses, c-Src or c-Fyn was immunoprecipitated, the pellet washed and assayed by incubation with the substrate enolase and [γ-^32P] ATP. Products were resolved by SDS-10%-PAGE then visualized and quantitiated by PhosphorImage analysis.
c-Src (FIG. 1A) or c-Fyn (FIG. 1B) were immunoprecipitated 8 h p.i. from NIH 3T3 cell lysates expressing HBx or HBxo. Where indicated, cells were incubated with PDGF (100 ng/ml) for 5 min.
Src kinase assays were carried out essentially as described (Kypta et al., 1990, Cell 62:481-492). Briefly, NIH 3T3 or Chang cells were lysed in buffer containing 1% NP-40, 150 mM NaCl, 20 mM Tris HCl pH 8, 2.5 mM EDTA, 1 mM Na3VO4, 50 mM NaF, 1 mM PMSF, 10 μg/ml aprotinin, and 10 μg/ml leupeptin. Src and Fyn kinase activity were measured by immunoprecipitating either Src (1 μg anti-Src antibodies) or Fyn (1 μg/ml anti-Fyn antibodies) from equal amounts of cell lysate. […] For the reactions containing the Src peptide substrate, TCA was added to a final concentration of 20%, an aliquot was spotted onto phosphocellulose paper (UBI), the filters were washed 3×5 minutes in 0.75% phosphoric acid and once in acetone, dried and analyzed by scintillation counting. […]

Setting [5] is: Chang cells, high concentration of EGTA (3 mM).

For `C/C=C(/C)C(=O)O[C@H]1C(C)=C2[C@H]([C@@H]1OC(=O)CCCCCCC)[C@@](C)(OC(C)=O)C[C@H](OC(=O)CCC)[C@@]1(O)[C@H]2OC(=O)[C@@]1(C)O` [thapsigargin], the “cytoplasmic levels of HBV pgRNA and HBsAg mRNAs” value in the assay with HBV [1] is recorded as “Neither agent increased”. The “stimulation of Pyk2 activity” value in the assay on Pyk2 [2] was determined as 3 fold. The “increase of reverse transcription and DNA replication of (HBx−)HBV” value in the assay on HBV [3] was found to be 10 fold.
With `CC(C)[C@@H]1NC(=O)[C@H](C)OC(=O)[C@@H](C(C)C)NC(=O)[C@@H](C(C)C)OC(=O)[C@H](C(C)C)NC(=O)[C@H](C)OC(=O)[C@@H](C(C)C)NC(=O)[C@@H](C(C)C)OC(=O)[C@H](C(C)C)NC(=O)[C@H](C)OC(=O)[C@@H](C(C)C)NC(=O)[C@@H](C(C)C)OC1=O` [valinomycin], the “cytoplasmic levels of HBV pgRNA and HBsAg mRNAs” value with HBV [1] was “Neither agent increased”. In addition, in the assay on Pyk2 [2], the “stimulation of Pyk2 activity” value came out at 5 fold. In addition, the “increase of reverse transcription and DNA replication of (HBx−)HBV” value with HBV [3] is listed as 20 fold.
Take `CC(=O)OCOC(=O)CN(CC(=O)OCOC(C)=O)c1ccccc1OCCOc1ccccc1N(CC(=O)OCOC(C)=O)CC(=O)OCOC(C)=O` [BAPTA-AM]: the “HBV mRNA levels” value in the assay with HBV [1] (HBV genome transfected HepG2 cells, low levels of BAPTA-AM for 4 d) is recorded as “without strongly reducing”. Moreover, in the assay on Pyk2 [4] (Chang cells), the “HBx activation of Pyk2” value is given as “prevented”. Further, in the assay with Pyk2 [4] (HBx transfected Chang cells, 50 μM (2 times IC50) for 2 h), the “HBx-induced Pyk2 phosphorylation at Y-402” value is “prevented”. Besides, in the assay on Pyk2 [4] (HBx transfected Chang cells, 50 μM for 2 h), the Pyk2 levels result is “without altering”. In the assay on HBV [3] (HBV genome transfected HepG2 cells, low levels of BAPTA-AM (2.5 μM or 25 μM) for 4 d), the “impairment of HBV viral DNA replication” value turned out to be 10 fold.
Regarding `O=C(O)CN(CCOCCOCCN(CC(=O)O)CC(=O)O)CC(=O)O` [EGTA], in the assay with Pyk2 [4] (setting [5]), the “TPA activation of Pyk2 phosphorylation” value is recorded as “did not block” and the “activation of Pyk2 by HBx” value is reported as “partially inhibited”. Further, the “HBx activation of Pyk2” value with Pyk2 [4] (Chang cells) is recorded as “no effect”.
For the compound PDGF, the “activation of c-Src (auto- and trans-phosphorylation)” value with c-Src is on record as 3-4 fold.
